Test [1] concerns the target Amyloid-beta precursor protein (Homo sapiens) (UniProt P05067). Put plainly: Binding affinity to amyloid beta (1 to 42) (unknown origin) assessed as intensity of peak for compound-amyloid beta (1 to 16) adduct at 200 uM incubated for 20 mins irradiated with UV light for 10 mins by MALDI-TOF-MS method (reference value: 10%).
Test [2] has the same target. Put plainly: Binding affinity to amyloid beta (1 to 42) (unknown origin) assessed as intensity of peak for compound-amyloid beta (1 to 16) adduct at 200 uM incubated for 60 mins irradiated with UV light for 10 mins by MALDI-TOF-MS method (reference value: 10%).
For test [3] the target is unchanged. Put plainly: Binding affinity to amyloid beta (1 to 42) (unknown origin) assessed as intensity of peak for compound-amyloid beta (1 to 16) adduct at 200 uM incubated for 120 mins irradiated with UV light for 10 mins by MALDI-TOF-MS method (reference value: 10%).
The target is the same in test [4]. Put plainly: Binding affinity to amyloid beta (1 to 42) (unknown origin) assessed as intensity of peak for compound-amyloid beta (17 to 28) adduct at 200 uM incubated for 20 to 120 mins irradiated with UV light for 10 mins by MALDI-TOF-MS method (reference value: 10%).
The target is the same in test [5]. Put plainly: Binding affinity to amyloid beta (1 to 42) (unknown origin) assessed as intensity of peak for compound-amyloid beta (29 to 42) adduct at 200 uM incubated for 20 to 120 mins irradiated with UV light for 10 mins by MALDI-TOF-MS method (reference value: 10%).
Test [6] has the same target. Description: Binding affinity to amyloid beta (1 to 42) (unknown origin) assessed as intensity of peak for compound-amyloid beta (1 to 16) adduct at 200 uM incubated for 10 mins irradiated with UV light for 10 mins by MALDI-TOF-MS method.
Test [7] has the same target. Description: Binding affinity to amyloid beta (1 to 16) (unknown origin) assessed as intensity of peak for compound-amyloid beta (1 to 16) adduct at 200 uM irradiated with UV light for 10 mins by MALDI-TOF-MS method.
Test [8] has the same target. Put plainly: Binding affinity to amyloid beta (1 to 42) (unknown origin) assessed as compound-amyloid beta (4 to 11) adduct formation at Tyr10 residue at 200 uM incubated for 2 hrs irradiated with UV light for 10 mins by LC-MS/MS method.
In test [9] the target is T1, Angiotensinogen (Homo sapiens) (UniProt P01019).
T1 sequence (whole entry): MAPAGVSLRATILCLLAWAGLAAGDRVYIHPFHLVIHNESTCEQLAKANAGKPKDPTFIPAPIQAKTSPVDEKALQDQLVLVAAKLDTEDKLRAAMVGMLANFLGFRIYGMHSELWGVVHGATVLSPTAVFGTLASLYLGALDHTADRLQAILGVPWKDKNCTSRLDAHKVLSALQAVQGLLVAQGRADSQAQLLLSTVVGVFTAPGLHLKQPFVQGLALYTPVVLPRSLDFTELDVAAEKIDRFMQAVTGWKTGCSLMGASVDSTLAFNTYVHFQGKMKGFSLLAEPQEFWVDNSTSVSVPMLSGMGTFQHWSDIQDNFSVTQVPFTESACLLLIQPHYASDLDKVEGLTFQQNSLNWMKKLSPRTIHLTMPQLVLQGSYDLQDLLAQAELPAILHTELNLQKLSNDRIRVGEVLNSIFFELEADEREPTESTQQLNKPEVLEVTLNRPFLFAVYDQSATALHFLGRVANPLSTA
Description: Binding affinity to angiotensin-4 (unknown origin) at 200 uM incubated for 2 hrs irradiated with UV light for 10 mins by MALDI-TOF-MS method.

Test [10] addresses T2, Neuropeptide S (Homo sapiens) (UniProt P0C0P6).
T2 sequence (whole entry): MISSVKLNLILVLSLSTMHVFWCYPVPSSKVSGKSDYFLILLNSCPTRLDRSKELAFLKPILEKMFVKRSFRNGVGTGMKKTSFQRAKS
Put plainly: Binding affinity to neuropeptide-S (unknown origin) at 200 uM incubated for 2 hrs irradiated with UV light for 10 mins by MALDI-TOF-MS method.

The next test has as its target Insulin (Homo sapiens) (UniProt P01308). Put plainly: Binding affinity to human insulin at 200 uM incubated for 2 hrs irradiated with UV light for 10 mins by MALDI-TOF-MS method.
For test [11], the target named is Amyloid-beta precursor protein (Homo sapiens) (UniProt P05067). Description: Binding affinity to amyloid beta (1 to 42) (unknown origin) assessed as fluorescence intensity at 50 uM by Thioflavin-T fluorescence assay (reference value: 100%).
The target is the same in test [12]. Description: Binding affinity to amyloid beta (1 to 42) (unknown origin) assessed as fluorescence intensity at 50 uM irradiated with UV light for 10 mins and measured up to 4 hrs by Thioflavin-T fluorescence assay (reference value: 100%).
Test [13] has the same target. Description: Inhibition of fibril formation of amyloid beta (1 to 42) (unknown origin) at 50 uM incubated for 20 mins followed by irradiation with UV light for 10 mins and measured after 12 hrs by atomic force microscopy.
Test [14] has the same target. Description: Inhibition of amyloid beta (1 to 42) (unknown origin)-mediated cytotoxicity in rat PC12 cells treated with 20 mins compound pre-treated Abeta (1 to 42) followed by UV irradiation for 10 mins […] and measured after 48 hrs by WST8 assay. The test is classed as cell-based. To be noted: PC-12.
Test [15] has the same target. Put plainly: Binding affinity to amyloid beta (1 to 42) (unknown origin) assessed as fluorescence intensity at 50 uM irradiated with UV light for 10 mins and measured after 60 mins by Thioflavin-T fluorescence assay (reference value: 100%).
Test [16] has the same target. Description: Inhibition of amyloid beta (1 to 42) (unknown origin)-mediated cytotoxicity in rat PC12 cells treated with 30 mins compound pre-treated Abeta (1 to 42) followed by UV irradiation for 10 mins […] and measured after 48 hrs by WST8 assay. Conditions: PC-12. The test is classed as cell-based.

Active and inactive are the calls of the source. No cut-off for these calls is given here. Starred links: 1 amine or outer side, 2 acyl side, 3 side chain; linkers in the order of their positions; H or OH if unused. Non-standard residues stand in square brackets, D forms with d. Residues, ends and D or L forms follow the SMILES beside them. Phe(4-CF3-diazirinyl) = N[C@@H](Cc1ccc(C2(C(F)(F)F)N=N2)cc1)C(=O)O; X1 = O=C([C@H](Cc1ccc(C(O)C(F)(F)F)cc1)N[*:1])[*:2]; Dip = N[C@H](C(=O)O)C(c1ccccc1)c1ccccc1

Chain of Amyloid-beta precursor protein (Homo sapiens) (P05067 whole entry): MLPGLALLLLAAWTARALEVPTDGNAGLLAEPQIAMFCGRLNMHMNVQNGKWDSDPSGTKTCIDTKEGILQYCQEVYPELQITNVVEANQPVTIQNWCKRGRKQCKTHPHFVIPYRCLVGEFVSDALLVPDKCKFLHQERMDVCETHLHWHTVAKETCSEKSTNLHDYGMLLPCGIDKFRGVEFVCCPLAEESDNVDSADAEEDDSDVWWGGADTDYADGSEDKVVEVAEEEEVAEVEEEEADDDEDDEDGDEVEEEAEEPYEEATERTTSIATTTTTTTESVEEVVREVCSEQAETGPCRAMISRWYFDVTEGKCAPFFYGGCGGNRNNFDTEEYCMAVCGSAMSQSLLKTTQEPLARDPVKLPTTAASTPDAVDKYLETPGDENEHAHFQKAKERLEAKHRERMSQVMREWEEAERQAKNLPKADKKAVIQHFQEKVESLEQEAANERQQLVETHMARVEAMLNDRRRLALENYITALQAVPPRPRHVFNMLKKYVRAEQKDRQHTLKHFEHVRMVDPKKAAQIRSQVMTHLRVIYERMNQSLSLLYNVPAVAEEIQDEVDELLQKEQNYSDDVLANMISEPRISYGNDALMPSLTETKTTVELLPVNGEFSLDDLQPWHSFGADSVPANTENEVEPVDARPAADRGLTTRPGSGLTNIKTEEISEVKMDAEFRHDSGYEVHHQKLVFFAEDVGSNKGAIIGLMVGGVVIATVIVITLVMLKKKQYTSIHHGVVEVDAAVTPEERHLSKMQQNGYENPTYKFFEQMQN
Chain of Insulin (Homo sapiens) (P01308 whole entry): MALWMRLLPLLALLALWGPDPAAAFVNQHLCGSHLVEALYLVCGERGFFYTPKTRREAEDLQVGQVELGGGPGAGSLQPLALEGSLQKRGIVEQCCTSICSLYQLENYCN

Turning to `CC(C)C[C@@H]1NC(=O)[C@H](CCCCN)NC(=O)[C@H](Cc2ccc(C3(C(F)(F)F)N=N3)cc2)NC(=O)[C@H](C(c2ccccc2)c2ccccc2)NC(=O)[C@H](C(C)C)NC1=O` (cyclo([Dip][Phe(4-CF3-diazirinyl)]KLV)), the Activity in [1] was determined as 10%; in test [2], 20%; in [3], 36%; in test [11] it was 59%; in test [12], 21%. For the same compound, the result (in [4]; in test [5]; in [7]; in [9]; in [10]; at Insulin (Homo sapiens)) was inactive. In addition, the result in [6] and in test [8] was Active. Further, the inhibition entry in test [13] was “Active”. The inhibition result in test [14] is “Dose-dependent effect”.

Regarding `CC(C)(C)OC(=O)N[C@@H](Cc1ccc(C2(C(F)(F)F)N=N2)cc1)C(=O)O`, in [6], the result was inactive.

Regarding `C[C@@H]1NC(=O)[C@H](CC(=O)O)NC(=O)[C@H](CCCNC(=N)N)NC(=O)[C@H](Cc2ccc(C3(C(F)(F)F)N=N3)cc2)NC(=O)[C@H](CCC(=O)O)NC1=O` (cyclo(AE[Phe(4-CF3-diazirinyl)]RD)), the outcome in test [6] was inactive.

With `CC(C)C[C@@H]1NC(=O)[C@H](CCCCN)NC(=O)[C@H](Cc2ccc(C(O)C(F)(F)F)cc2)NC(=O)[C@H](C(c2ccccc2)c2ccccc2)NC(=O)[C@H](C(C)C)NC1=O` (stereo not given in full) (cyclo([Dip][X1]KLV)), in [15], the Activity was 21%. The inhibition entry in test [16] is “Dose-dependent effect”.

On to `CC(C)C[C@H]1NC(=O)[C@@H](CCCCN)NC(=O)[C@@H](Cc2ccccc2)NC(=O)[C@@H](C(c2ccccc2)c2ccccc2)NC(=O)[C@@H](C(C)C)NC1=O`, for which the Activity in test [11] was found to be 68%.

Source of the values: ChEMBL document CHEMBL3596104, “Covalent modifier-type aggregation inhibitor of amyloid-β based on a cyclo-KLVFF motif” (Bioorg Med Chem Lett, 2015).
